Data from the NIST ThermoML archive (doi:10.1021/acs.jced.7b00650).
± gives the expanded uncertainty stated by the source.

Conditions: Liquid; for viscosity: Capillary tube (Ostwald / Ubbelohde) method; for mass density: Vibrating tube method

CCCCCCCC [octane]
Conditions	mass density [kg/m3]	viscosity [mPa·s]
293.21 K, 1996 kPa	703.76 ± 0.93	0.5512 ± 0.0062
293.21 K, 8004 kPa	709.25 ± 0.95	0.5874 ± 0.0066
293.21 K, 13010 kPa	713.21 ± 0.97	0.6183 ± 0.0069
293.21 K, 30002 kPa	725.54 ± 1	0.7285 ± 0.008
293.22 K, 3994 kPa	705.71 ± 0.94	0.5631 ± 0.0063
293.22 K, 6001 kPa	707.57 ± 0.94	0.5752 ± 0.0064
293.22 K, 10009 kPa	710.88 ± 0.96	0.5997 ± 0.0067
293.22 K, 16009 kPa	715.43 ± 0.98	0.6371 ± 0.0071
293.22 K, 19011 kPa	717.57 ± 0.99	0.6566 ± 0.0073
293.22 K, 22012 kPa	719.76 ± 1	0.6759 ± 0.0075
293.22 K, 25004 kPa	721.88 ± 1	0.6954 ± 0.0077
293.22 K, 28004 kPa	724.19 ± 1	0.7152 ± 0.0079
313.1 K, 5999 kPa	692.07 ± 0.93	0.4593 ± 0.0052
313.1 K, 19006 kPa	703.5 ± 0.98	0.5234 ± 0.0059
313.1 K, 21998 kPa	706.05 ± 0.99	0.5385 ± 0.0061
313.1 K, 25000 kPa	708.39 ± 1	0.5539 ± 0.0062
313.1 K, 27998 kPa	710.67 ± 1	0.5694 ± 0.0064
313.1 K, 30001 kPa	712.15 ± 1	0.5798 ± 0.0065
313.11 K, 2007 kPa	688.27 ± 0.91	0.4402 ± 0.005
313.11 K, 4000 kPa	690.26 ± 0.92	0.4497 ± 0.0051
313.11 K, 7997 kPa	693.85 ± 0.93	0.469 ± 0.0053
313.11 K, 10009 kPa	695.59 ± 0.94	0.4788 ± 0.0054
313.11 K, 13005 kPa	698.26 ± 0.95	0.4935 ± 0.0056
313.11 K, 16009 kPa	700.84 ± 0.97	0.5083 ± 0.0057
333 K, 22003 kPa	691.91 ± 0.98	0.4414 ± 0.005
333.01 K, 2005 kPa	672.19 ± 0.89	0.3601 ± 0.0042
333.01 K, 3993 kPa	674.49 ± 0.9	0.3681 ± 0.0043
333.01 K, 5998 kPa	676.69 ± 0.91	0.3761 ± 0.0044
333.01 K, 8014 kPa	678.82 ± 0.92	0.3841 ± 0.0044
333.01 K, 10007 kPa	680.8 ± 0.93	0.3921 ± 0.0045
333.01 K, 13004 kPa	683.6 ± 0.94	0.4043 ± 0.0046
333.01 K, 16002 kPa	686.47 ± 0.95	0.4166 ± 0.0048
333.01 K, 19006 kPa	689.24 ± 0.97	0.4289 ± 0.0049
333.01 K, 25006 kPa	694.49 ± 1	0.4539 ± 0.0052
333.01 K, 28003 kPa	696.99 ± 1	0.4666 ± 0.0053
333.01 K, 30012 kPa	698.61 ± 1	0.4751 ± 0.0054
353.12 K, 2008 kPa	655.38 ± 0.87	0.2974 ± 0.0035
353.12 K, 3999 kPa	657.99 ± 0.88	0.3043 ± 0.0036
353.12 K, 6000 kPa	660.5 ± 0.89	0.3112 ± 0.0037
353.12 K, 8001 kPa	663.11 ± 0.9	0.3181 ± 0.0037
353.12 K, 10006 kPa	665.45 ± 0.91	0.325 ± 0.0038
353.12 K, 19000 kPa	674.99 ± 0.96	0.3563 ± 0.0041
353.12 K, 22003 kPa	677.96 ± 0.97	0.3669 ± 0.0043
353.12 K, 25005 kPa	680.81 ± 0.99	0.3775 ± 0.0044
353.12 K, 28008 kPa	683.56 ± 1	0.3882 ± 0.0045
353.12 K, 30004 kPa	685.34 ± 1	0.3954 ± 0.0046
353.13 K, 13003 kPa	668.83 ± 0.93	0.3354 ± 0.0039
353.13 K, 16004 kPa	672.05 ± 0.94	0.3458 ± 0.004

CCCCC [pentane]
Conditions	mass density [kg/m3]	viscosity [mPa·s]
293.21 K, 2000 kPa	628.05 ± 0.84	0.232 ± 0.0029
293.21 K, 3998 kPa	630.31 ± 0.85	0.2382 ± 0.0029
293.21 K, 6000 kPa	632.63 ± 0.86	0.2439 ± 0.003
293.21 K, 8003 kPa	634.89 ± 0.87	0.2495 ± 0.0031
293.21 K, 13008 kPa	640.02 ± 0.9	0.2637 ± 0.0032
293.21 K, 30000 kPa	655.38 ± 1	0.31 ± 0.0037
293.22 K, 10008 kPa	636.91 ± 0.88	0.2551 ± 0.0031
293.22 K, 16007 kPa	643 ± 0.92	0.2719 ± 0.0033
293.22 K, 19009 kPa	645.81 ± 0.94	0.2806 ± 0.0034
293.22 K, 22010 kPa	648.59 ± 0.96	0.2885 ± 0.0035
293.22 K, 25002 kPa	651.19 ± 0.98	0.2967 ± 0.0036
293.22 K, 28002 kPa	653.72 ± 1	0.3046 ± 0.0036
313.1 K, 2005 kPa	608.49 ± 0.82	0.1968 ± 0.0025
313.1 K, 6001 kPa	613.99 ± 0.84	0.2075 ± 0.0026
313.1 K, 7999 kPa	616.58 ± 0.85	0.2126 ± 0.0027
313.1 K, 10005 kPa	619.09 ± 0.87	0.218 ± 0.0027
313.1 K, 13001 kPa	622.65 ± 0.89	0.2259 ± 0.0028
313.1 K, 16005 kPa	626.03 ± 0.91	0.2334 ± 0.0029
313.1 K, 19002 kPa	629.28 ± 0.93	0.2409 ± 0.003
313.1 K, 22002 kPa	632.38 ± 0.95	0.2485 ± 0.0031
313.1 K, 25004 kPa	635.4 ± 0.97	0.2558 ± 0.0031
313.1 K, 28002 kPa	638.2 ± 0.99	0.2628 ± 0.0032
313.1 K, 30005 kPa	640.09 ± 1	0.2676 ± 0.0033
313.11 K, 4002 kPa	611.31 ± 0.83	0.2023 ± 0.0026
333.01 K, 2009 kPa	587.87 ± 0.8	0.1679 ± 0.0022
333.01 K, 3997 kPa	591.4 ± 0.81	0.1737 ± 0.0023
333.01 K, 6002 kPa	594.59 ± 0.82	0.1787 ± 0.0023
333.01 K, 8008 kPa	597.69 ± 0.84	0.1837 ± 0.0024
333.01 K, 10001 kPa	600.61 ± 0.85	0.1888 ± 0.0024
333.01 K, 12998 kPa	604.82 ± 0.87	0.1958 ± 0.0025
333.01 K, 15996 kPa	608.78 ± 0.89	0.2029 ± 0.0026
333.01 K, 19000 kPa	612.5 ± 0.91	0.21 ± 0.0026
333.01 K, 21997 kPa	616.1 ± 0.94	0.217 ± 0.0027
333.01 K, 25000 kPa	619.39 ± 0.96	0.2239 ± 0.0028
333.01 K, 27997 kPa	622.68 ± 0.98	0.2306 ± 0.0029
333.01 K, 30006 kPa	624.71 ± 1	0.2348 ± 0.0029
353.12 K, 2006 kPa	565.77 ± 0.77	0.1452 ± 0.002
353.12 K, 3997 kPa	570.01 ± 0.79	0.1504 ± 0.002
353.12 K, 6002 kPa	574.02 ± 0.8	0.1557 ± 0.0021
353.12 K, 8003 kPa	577.79 ± 0.82	0.1606 ± 0.0021
353.12 K, 10008 kPa	581.28 ± 0.83	0.1654 ± 0.0022
353.12 K, 13000 kPa	586.31 ± 0.85	0.1724 ± 0.0023
353.12 K, 16001 kPa	590.9 ± 0.88	0.1792 ± 0.0023
353.12 K, 18997 kPa	595.21 ± 0.9	0.1857 ± 0.0024
353.12 K, 25002 kPa	603.1 ± 0.95	0.1987 ± 0.0025
353.12 K, 28005 kPa	606.77 ± 0.98	0.2047 ± 0.0026
353.12 K, 30001 kPa	609.1 ± 1	0.2087 ± 0.0026
353.13 K, 22000 kPa	599.29 ± 0.93	0.1922 ± 0.0025
